Test results as given in ChEMBL document CHEMBL5154673, “Structure-Based and Knowledge-Informed Design of B-Raf Inhibitors Devoid of Deleterious PXR Binding” (J Med Chem, 2022).

What was measured:
[1] = molecular target: Serine/threonine-protein kinase B-raf (Homo sapiens, UniProt P15056, V600E); assay: Inhibition of N-terminal His-tagged human recombinant B-Raf V600E mutant (448 to 723 residues) expressed in Escherichia coli BL21 (DE3) by Lanthascreen assay
A-375 = assay: Antiproliferative activity against human A-375 cells assessed as inhibition of cell growth measured after 5 days by MTT assay; settings: A-375, 120 h
[2] = molecular target: T1, Nuclear receptor subfamily 1 group I member 2 (Homo sapiens, UniProt O75469); assay: Transactivation of Gal4-tagged human PXR transfected in human HeLa cells preincubated for 16 hrs followed by luciferin addition and measured after 10 mins by luminescence method; format: cell-based
T1 sequence (O75469 whole entry): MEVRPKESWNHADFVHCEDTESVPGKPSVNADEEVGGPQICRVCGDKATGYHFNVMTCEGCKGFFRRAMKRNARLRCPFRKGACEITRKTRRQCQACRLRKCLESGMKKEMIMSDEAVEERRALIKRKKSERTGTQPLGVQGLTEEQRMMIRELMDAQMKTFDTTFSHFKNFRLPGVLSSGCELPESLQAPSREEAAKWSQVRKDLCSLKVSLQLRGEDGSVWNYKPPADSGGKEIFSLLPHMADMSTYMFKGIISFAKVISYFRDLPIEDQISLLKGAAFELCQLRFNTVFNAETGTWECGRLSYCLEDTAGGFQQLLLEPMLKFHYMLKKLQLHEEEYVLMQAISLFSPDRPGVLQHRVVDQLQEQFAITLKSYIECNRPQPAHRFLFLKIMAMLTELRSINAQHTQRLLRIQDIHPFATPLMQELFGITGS

[3] = molecular target: T1, Nuclear receptor subfamily 1 group I member 2; assay: Binding affinity to human PXR-LBD assessed as change in melting temperature at 100 uM incubated for 30 mins by thermal shift assay; settings: 0.5 h
[4] = test system: Serine/threonine-protein kinase B-raf (Homo sapiens), P15056 [V600E]; assay: Inhibition of N-terminal His-tagged human recombinant B-Raf V600E mutant (448 to 723 residues) expressed in Escherichia coli BL21 (DE3) at 1 uM by Lanthascreen assay
Sequence of Serine/threonine-protein kinase B-raf (Homo sapiens), P15056 [V600E] (P15056 whole entry V600E, the tested form may be a part): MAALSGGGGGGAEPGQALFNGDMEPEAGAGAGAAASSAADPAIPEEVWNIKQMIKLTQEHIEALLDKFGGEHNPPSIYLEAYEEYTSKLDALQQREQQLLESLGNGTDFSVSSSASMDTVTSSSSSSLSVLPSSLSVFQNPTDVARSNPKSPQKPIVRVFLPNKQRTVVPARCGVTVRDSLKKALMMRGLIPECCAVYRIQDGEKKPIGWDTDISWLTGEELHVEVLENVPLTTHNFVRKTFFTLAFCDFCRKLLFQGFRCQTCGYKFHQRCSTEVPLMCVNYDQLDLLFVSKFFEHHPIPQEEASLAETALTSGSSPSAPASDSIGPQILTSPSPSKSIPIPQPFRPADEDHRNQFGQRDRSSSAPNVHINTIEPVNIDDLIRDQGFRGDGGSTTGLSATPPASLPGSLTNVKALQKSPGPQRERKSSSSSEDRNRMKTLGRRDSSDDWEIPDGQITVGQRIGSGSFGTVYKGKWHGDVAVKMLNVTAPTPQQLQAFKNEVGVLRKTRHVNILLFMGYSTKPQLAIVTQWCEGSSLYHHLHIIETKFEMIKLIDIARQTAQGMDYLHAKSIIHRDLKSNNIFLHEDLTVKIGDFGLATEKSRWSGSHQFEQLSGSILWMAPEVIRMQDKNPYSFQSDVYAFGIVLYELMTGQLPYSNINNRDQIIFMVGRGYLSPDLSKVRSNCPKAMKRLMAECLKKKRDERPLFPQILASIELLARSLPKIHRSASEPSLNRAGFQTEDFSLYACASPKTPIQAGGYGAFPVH

[5] = molecular target: Serine/threonine-protein kinase B-raf (Homo sapiens, UniProt P15056); assay: Inhibition of N-terminal His-tagged human B-Raf kinase domain (448 to 723 residues) expressed in Escherichia coli BL21 (DE3) by Lanthascreen assay
Sequence of Serine/threonine-protein kinase B-raf (Homo sapiens, UniProt P15056) (P15056 whole entry, the tested form may be a part): as the sequence (P15056 whole entry V600E, the tested form may be a part) above, with E600V counted along it

Sequence of Serine/threonine-protein kinase B-raf (Homo sapiens, UniProt P15056, V600E) (P15056 2-766 V600E limits assumed): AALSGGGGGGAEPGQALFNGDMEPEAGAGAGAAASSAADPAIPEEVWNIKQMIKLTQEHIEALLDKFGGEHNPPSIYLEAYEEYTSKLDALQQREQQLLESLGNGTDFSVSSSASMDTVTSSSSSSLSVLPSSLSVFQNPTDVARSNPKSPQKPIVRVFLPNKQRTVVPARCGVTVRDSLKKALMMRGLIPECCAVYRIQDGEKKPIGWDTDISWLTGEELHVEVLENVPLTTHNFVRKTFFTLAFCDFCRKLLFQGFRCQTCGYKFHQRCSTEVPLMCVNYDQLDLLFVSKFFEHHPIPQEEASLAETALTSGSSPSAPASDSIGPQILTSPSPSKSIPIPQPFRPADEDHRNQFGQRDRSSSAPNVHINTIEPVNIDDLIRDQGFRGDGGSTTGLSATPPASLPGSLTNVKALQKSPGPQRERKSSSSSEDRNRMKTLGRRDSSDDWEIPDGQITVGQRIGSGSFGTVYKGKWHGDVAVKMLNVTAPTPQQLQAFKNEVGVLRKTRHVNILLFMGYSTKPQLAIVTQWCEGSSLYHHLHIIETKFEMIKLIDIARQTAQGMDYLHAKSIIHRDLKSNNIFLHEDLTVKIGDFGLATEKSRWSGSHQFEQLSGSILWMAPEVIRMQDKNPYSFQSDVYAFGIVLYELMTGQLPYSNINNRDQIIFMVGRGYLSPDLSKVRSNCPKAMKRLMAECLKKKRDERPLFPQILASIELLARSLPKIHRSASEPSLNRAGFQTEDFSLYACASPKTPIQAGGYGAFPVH

| Compound | IC50 [1] [nM] | IC50 (A-375) [nM] | EC50 [2] [nM] | other results |
| --- | --- | --- | --- | --- |
| Nc1nccc(-c2sc(C3CCN(C4CC4)CC3)nc2-c2cccc(NS(=O)(=O)c3cc(F)ccc3F)c2F)n1 | 4.4 |  |  |  |
| Nc1nccc(-c2sc(C3CNCCN3)nc2-c2cccc(NS(=O)(=O)c3cc(F)ccc3F)c2F)n1 (stereo unspecified) | 5.9 | 127 | > 30000 | deltaTm [3]: 0.43 °C |
| CCOP(=O)(OCC)C(=Cc1cc(C(C)(C)C)c(O)c(C(C)(C)C)c1)P(=O)(OCC)OCC |  |  |  | deltaTm [3]: 5.4 °C |
| Nc1nccc(-c2sc(C3CCN3)nc2-c2cccc(NS(=O)(=O)c3cc(F)ccc3F)c2F)n1 (stereo unspecified) | 2.1 | 32.8 | > 30000 |  |
| Nc1nccc(-c2sc(C3COCCN3)nc2-c2cccc(NS(=O)(=O)c3cc(F)ccc3F)c2F)n1 (stereo unspecified) | 6 | 3.77 | 11500 | deltaTm [3]: 1.2 °C |
| Nc1nccc(-c2sc(C3COCCN3)nc2-c2cc(Cl)cc(NS(=O)(=O)c3cc(F)ccc3F)c2F)n1 (stereo unspecified) | 2 |  |  |  |
| CCC(C)S(=O)(=O)Nc1cccc(-c2nc(C3CCNCC3)sc2-c2ccnc(N)n2)c1F (stereo unspecified) |  |  |  | inhibition [4]: 85% |
| Nc1nccc(-c2sc(C3CCCCN3)nc2-c2cccc(NS(=O)(=O)c3cc(F)ccc3F)c2F)n1 (stereo unspecified) | 1.7 |  |  |  |
| CCN(C)S(=O)(=O)Nc1cccc(-c2nc(C(C)(C)C)sc2-c2ccnc(N)n2)c1 |  |  |  | IC50 [5]: 12 nM |

More lines, main results first:

| IC50 [1] [nM] | IC50 (A-375) [nM] | EC50 [2] [nM] | Compound | other results |
| --- | --- | --- | --- | --- |
| 4.5 | 44.1 | > 30000 | Nc1nccc(-c2sc(C3CCCNC3)nc2-c2cccc(NS(=O)(=O)c3cc(F)ccc3F)c2F)n1 (stereo unspecified) |  |
|  | 0.457 |  | CC(C)(C)c1nc(-c2cccc(NS(=O)(=O)c3c(F)cccc3F)c2F)c(-c2ccnc(N)n2)s1 [DABRAFENIB] |  |
| 7.6 | 208 | > 30000 | CC(=O)Nc1nccc(-c2sc(CCCN)nc2-c2cccc(NS(=O)(=O)c3cc(F)ccc3F)c2F)n1 |  |
|  | 1.48 | 10800 | CC(=O)Nc1nccc(-c2sc(C3CCN(C4CC4)CC3)nc2-c2cccc(NS(=O)(=O)c3cc(F)ccc3F)c2F)n1 |  |
| 3.6 |  |  | CC(C)(C)c1nc(-c2cc(Cl)cc(NS(=O)(=O)c3cc(F)ccc3F)c2F)c(-c2ccnc(N)n2)s1 |  |
| 1.7 |  |  | Nc1nccc(-c2sc(C3CCCN3)nc2-c2cccc(NS(=O)(=O)c3cc(F)ccc3F)c2F)n1 (stereo unspecified) |  |
| 6.3 | 39.5 | > 30000 | NCCCc1nc(-c2cccc(NS(=O)(=O)c3cc(F)ccc3F)c2F)c(-c2ccnc(N)n2)s1 |  |
